Common to all, as to assay type: biochemical
Test [1] deals with MMP-2 (Homo sapiens (Human), UniProt P08253). Put plainly: MMP-2 inhibition assay (fluorimetric, DQ gelatin substrate). The conditions noted are these: recombinant MMP-2 (CHO cells) 85 ng/mL, DQ gelatin 50 μg/mL, 2 hours at room temperature, pH 7.6. The method, then:
(§1) All the experiments were done in 1× reaction buffer, which was obtained from a 10× reaction buffer solution. The content of the 10× reaction buffer was: 50 mL of 0.5 M Tris-HCl, 1.5 M NaCl, 50 mM CaCl2 and 2 mM sodium azide at pH 7.6. To obtain the 1× reaction buffer 4 mL of the 10× reaction buffer were diluted in 36 mL of H2O.
Recombinant MMP-2 expressed in Chinese hamster ovary (CHO) cells was obtained from Merck-Millipore (catalog number PF023-5UG). DQ gelatin from pig skin fluorescein conjugated (MMP-2 substrate) was obtained from Life Technologies (catalog number E12055).
Preparation of the MMP-2 for the activity assay: MMP-2 was provided as a stock solution (0.1 mg/mL). The enzyme was diluted in 1× reaction buffer to a final concentration of 5 μg/mL.
Preparation of the DQ gelatin (substrate) solution for the activity assay: the solid form of the substrate was dissolved in water in order to obtain a stock solution of 1 mg/mL.
Procedure: The enzymatic assays were performed in 96-well microtiter plate, which allowed simultaneous monitoring of multiple reactions. For each reaction, 86.3 μL of 1× reaction buffer (pH 7.6), 1.7 μL of MMP-2 (final concentration 85 ng/mL) and 2 μL of the corresponding new compound were added to each well. A stock solution of new compound was prepared in DMSO (100 mM), and dilutions were prepared from this stock solution with DMSO. Finally, to the mixture contained in each well 10 μL of the substrate were added (final concentration 50 μg/mL). The reaction was incubated for 2 hours at room temperature in an orbital shaker (100 rpm).
The inhibitory activity of the new compound was measured fluorimetrically. The excitation and emission wavelengths were 483 and 525 nm, respectively.
Inhibitory activity at several concentration points (ranging from 100 pM to 200 μM MMP) were measured for each compound. The inhibitory activity on MMP-2 and MMP-9 was calculated according to eq 1. For each new compound, the fluorescence in the presence (a) and in the absence (b) of the corresponding MMP was measured. The maximum fluorescence (0% inhibitory activity) was obtained from a sample of the corresponding MMP in the absence of inhibitory compounds. To estimate the inhibitory potency of the novel compounds, activities were plotted against the log concentration of the compound, adjusting to a sigmoid curve using GraphPad Prism software, and the IC50 value, defined as the concentration of compound required to inhibit 50% of the corresponding MMP activity, was determined from resulting curve.
a corresponds to fluorescence intensity in the presence of substrate+test compound+MMP
b corresponds to the fluorescence intensity in the presence of substrate+tested compound
c corresponds to the fluorescence intensity in the presence of substrate+MMP
d corresponds to the fluorescence intensity of the presence of substrate

Test [2] deals with MMP-3 (Homo sapiens (Human), UniProt P08254). Put plainly: MMP-3 inhibition assay (fluorogenic peptide substrate). The settings on record: recombinant MMP-3 7.7 nM, Mca-RPKPVE-Nval-WRK(Dnp)-NH2 10 μM, 4 hours at room temperature; tested at 1, 10, 100 and 200 μM. How it is done:
as §1
Recombinant MMP-3 expressed in E. Coli was obtained from Merck-Millipore (catalog number 44217). Mca-RPKPVE-Nval-WRK(Dnp)-NH2 (fluorogenic peptide substrate) was obtained from R&D Systems (catalog number ES002).
Preparation of the MMP-3 for the activity assay: MMP-3 was provided as a stock solution (0.1 mg/mL). The enzyme was diluted in water to a final concentration of 0.005 mg/mL.
MMP-3 peptide substrate was provided as a stock solution in DMSO (4.5 mM). For the assay, the substrate was diluted 1× reaction buffer to a concentration of 100 μM.
Procedure: The enzymatic assays were performed in 96-well microtiter plate, which allowed simultaneous monitoring of multiple reactions. For each reaction, 84.6 μL of 1× reaction buffer (pH 7.6), 3.4 μL of MMP-3 (final concentration 7.7 nM) and 2 μL of the corresponding new compound were added to each well. A stock solution of new compound was prepared in DMSO (100 mM), and dilutions were prepared from this stock solution with DMSO. Finally, to the mixture contained in each well 10 μL of the substrate were added (final concentration 10 μM). The reaction was incubated for 4 hours at room temperature in an orbital shaker (90 rpm).
(§2) The inhibitory activity of the new compound was measured fluorimetrically. The excitation and emission wavelengths were 320 and 405 nm, respectively.
(§3) Inhibitory activity at several concentration points (1, 10, 100 and 200 μM) were measured for each compound. The inhibitory activity on MMP-1, MMP-3 and MMP-7 was calculated according to eq 1 and The IC50 value was calculated as explained above for MMP-2 and MMP-9.

Test [3] addresses MMP-1 (Homo sapiens (Human), UniProt P03956). Put plainly: MMP-1 inhibition assay (fluorogenic peptide substrate). The settings on record: recombinant MMP-1 5.52 nM, Mca-PLGL-Dpa-AR-NH2 10 μM, 4 hours at room temperature; tested at 1, 10, 100 and 200 μM. How it is done: as §1
Recombinant MMP-1 expressed in E. Coli was obtained from Enzo Life Sciences (catalog number BML-SE180). Mca-PLGL-Dpa-AR-NH2 (fluorogenic peptide substrate) was obtained from R&D Systems (catalog number ES001).
Preparation of the MMP-1 for the activity assay: MMP-1 was provided as a stock solution (0.55 mg/mL). The enzyme was diluted in 1× reaction buffer to a final concentration of 276 nM.
MMP-1 peptide substrate was provided as a stock solution in DMSO (6 mM). For the assay, the substrate was diluted 1× reaction buffer to a concentration of 100 μM.
Procedure: The enzymatic assays were performed in 96-well microtiter plate, which allowed simultaneous monitoring of multiple reactions. For each reaction, 86 μL of 1× reaction buffer (pH 7.6), 2 μL of MMP-1 (final concentration 5.52 nM) and 2 μL of the corresponding new compound were added to each well. A stock solution of the new compound was prepared in DMSO (100 mM), and dilutions were prepared from this stock solution with DMSO. Finally, to the mixture contained in each well 10 μL of the substrate were added (final concentration 10 μM). The reaction was incubated for 4 hours at room temperature in an orbital shaker (100 rpm).
as §2, §3

Where a SMILES comes first, the peptide text is derived from it. [ ]: non-standard residue; d: D form. The star is where a group is joined. ξ: configuration not given here. NMeW = CN[C@@H](Cc1c[nH]c2ccccc12)C(=O)O; Benzoyl(3,5-F2) = O=C(c1cc(F)cc(F)c1)*; NMeIle(3ξ) = CCC(C)[C@H](NC)C(=O)O; NMeF = CN[C@@H](Cc1ccccc1)C(=O)O; NMeQ = CN[C@@H](CCC(N)=O)C(=O)O; NMeL = CN[C@@H](CC(C)C)C(=O)O; Dab = NCC[C@H](N)C(=O)O; Butyryl = CCCC(=O)*; NHOH = ON*

MMP-1, sequence (P03956 100-269): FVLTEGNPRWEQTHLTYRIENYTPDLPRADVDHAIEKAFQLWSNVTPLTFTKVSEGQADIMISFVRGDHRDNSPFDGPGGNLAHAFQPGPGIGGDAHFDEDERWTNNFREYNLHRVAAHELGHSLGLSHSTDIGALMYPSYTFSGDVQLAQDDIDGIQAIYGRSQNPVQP
MMP-2, sequence (P08253 110-660): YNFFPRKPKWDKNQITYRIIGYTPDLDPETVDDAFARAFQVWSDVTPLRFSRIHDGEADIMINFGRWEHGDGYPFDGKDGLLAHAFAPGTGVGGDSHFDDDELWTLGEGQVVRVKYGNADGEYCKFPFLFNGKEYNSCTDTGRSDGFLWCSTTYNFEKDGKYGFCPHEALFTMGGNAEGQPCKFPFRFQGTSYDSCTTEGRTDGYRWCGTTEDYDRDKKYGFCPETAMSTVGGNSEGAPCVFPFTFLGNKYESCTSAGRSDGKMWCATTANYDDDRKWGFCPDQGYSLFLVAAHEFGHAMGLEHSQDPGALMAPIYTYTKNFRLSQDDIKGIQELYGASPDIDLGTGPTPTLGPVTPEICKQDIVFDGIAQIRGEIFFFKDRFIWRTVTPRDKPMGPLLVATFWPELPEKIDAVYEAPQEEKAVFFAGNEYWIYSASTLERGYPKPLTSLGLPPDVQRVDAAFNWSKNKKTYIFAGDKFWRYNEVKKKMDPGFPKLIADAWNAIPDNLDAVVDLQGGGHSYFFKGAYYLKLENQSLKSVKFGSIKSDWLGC
MMP-3, sequence (P08254 100-477): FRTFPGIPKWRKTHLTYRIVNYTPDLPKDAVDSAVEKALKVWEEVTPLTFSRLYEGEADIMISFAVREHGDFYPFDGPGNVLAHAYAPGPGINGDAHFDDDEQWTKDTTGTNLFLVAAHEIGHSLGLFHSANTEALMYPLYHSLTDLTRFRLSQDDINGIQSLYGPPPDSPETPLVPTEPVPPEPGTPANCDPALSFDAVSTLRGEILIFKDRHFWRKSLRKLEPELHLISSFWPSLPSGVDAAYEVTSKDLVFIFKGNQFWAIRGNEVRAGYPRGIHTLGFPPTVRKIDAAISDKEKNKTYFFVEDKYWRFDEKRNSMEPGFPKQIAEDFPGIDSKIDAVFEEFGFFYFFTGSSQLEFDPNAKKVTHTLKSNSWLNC

In general, IC50 refers to the concentration that gives 50% inhibition. In the case of `CCCC(=O)N(C)[C@@H](Cc1c[nH]c2ccccc12)C(=O)N(C)[C@@H](CC(C)C)C(=O)N1CCC[C@H]1C(=O)N(C)[C@H](C(=O)N[C@@H](CCNC(=O)c1cc(F)cc(F)c1)C(=O)NO)C(C)CC` (stereo partly drawn) [Example 14, (2S)-1-[(2S)-2-[[(2S)-2-[butanoyl(methyl)amino]-3-(1H-indol-3-yl)propanoyl]-methyl-amino]-4-methyl-pentanoyl]-N-[(1S)-1-[[(1S)-3-[(3,5-difluorobenzoyl)amino]-1-(hydroxycarbamoyl)propyl]carbamoyl]-2-methyl-butyl]-N-methyl-pyrrolidine-2-carboxamide] (Butyryl-[NMeW][NMeL]P[NMeIle(3ξ)][Dab](Benzoyl(3,5-F2))-{NHOH}), the IC50 in test [1] turned out to be 0.116 µM; in test [3], 6.07 µM. In addition, the “MMP-3 IC50” value in test [2] was below 1 µM.

`CCC(C)[C@@H](C(=O)N[C@@H](CCNC(=O)c1cc(F)cc(F)c1)C(=O)NO)N(C)C(=O)[C@@H]1CCCN1C(=O)CCN(C)C(C)=O` (stereo partly drawn) [Example 13, (2S)-1-[3-[acetyl(methyl)amino]propanoyl]-N-[(1S)-1-[[(1S)-3-[(3,5-difluorobenzoyl)amino]-1-(hydroxycarbamoyl)propyl]carbamoyl]-2-methyl-butyl]-N-methyl-pyrrolidine-2-carboxamide]: the IC50 in test [1] was found to be 1.15 µM; in test [2], 200 µM; in test [3], 200 µM.

As to `CCC(C)[C@@H](C(=O)N[C@@H](CCNC(=O)c1cc(F)cc(F)c1)C(=O)NO)N(C)C(=O)[C@@H]1CCCN1C(=O)[C@H](Cc1ccccc1)N(C)C(C)=O` (stereo partly drawn) [Example 11, (2 S)-1-[(2S)-2-[acetyl(methyl)amino]-3-phenyl-propanoyl]-N-[(1S)-1-[[(1S)-3-[(3,5-difluorobenzoyl)amino]-1-(hydroxycarbamoyl)propyl]carbamoyl]-2-methyl-butyl]-N-methyl-pyrrolidine-2-carboxamide] (Ac-[NMeF]P[NMeIle(3ξ)][Dab](Benzoyl(3,5-F2))-{NHOH}), the values for the IC50 in test [1], in test [2] and in test [3] were 0.174 µM, 200 µM and 9.13 µM, respectively.

With `CC(=O)N1CCC[C@H]1C(=O)N[C@@H](CCC(N)=O)C(=O)N[C@@H](Cc1c[nH]c2ccccc12)C(=O)NO` [Example C17, (2S)-2-[[(2S)-1-acetylpyrrolidine-2-carbonyl)amino]-N-[(1S)-2-(hydroxyamino)-1-(1H-indol-3-ylmethyl)-2-oxo-ethyl]pentanediamide, reference compound] (Ac-Pro-Gln-Trp-{NHOH}), the IC50 in test [1] amounted to 110 µM; in test [2], 3.1 µM; in test [3], 6.1 µM.

Take `CCCC(CCC)C(=O)N1CCC[C@H]1C(=O)N(C)[C@H](C(=O)N[C@@H](CCNC(=O)c1cc(F)cc(F)c1)C(=O)NO)C(C)CC` (stereo partly drawn) [Example 8, (2S)—N-[(1S)-1-[[(1S)-3-[(3,5-difluorobenzoyl)amino]-1-(hydroxycarbamoyl)propyl]carbamoyl]-2-methyl-butyl]-N-methyl-1-(2-propylpentanoyl)pyrrolidine-2-carboxamide]: the concentration for half-maximal inhibition (IC50) in test [1] worked out at 0.974 µM; in test [2], 3.81 µM; in test [3] it was 3.65 µM.

In the case of `CCC(C)[C@@H](C(=O)N[C@@H](CCNC(=O)c1cc(F)cc(F)c1)C(=O)NO)N(C)C(=O)[C@@H]1CCCN1C(=O)CCCOc1ccccc1` (stereo partly drawn) [Example 9, (2S)—N-[(1S)-1-[[(1S)-3-[(3,5-difluorobenzoyl)amino]-1-(hydroxycarbamoyl)propyl]carbamoyl]-2-methyl-butyl]-N-methyl-1-(4-phenoxybutanoyl)pyrrolidine-2-carboxamide], the IC50 in test [1] turned out to be 0.362 µM; in test [2], 3.2 µM; in test [3], 11.4 µM.

`CCC(C)[C@@H](C(=O)N[C@@H](CCNC(=O)c1cc(F)cc(F)c1)C(=O)NO)N(C)C(=O)[C@@H]1CCCN1C(C)=O` (stereo partly drawn) [Example 2, (2S)-1-acetyl-N-[(1S)-1-[[(1S)-3-[(3,5-difluorobenzoyl)amino]-1-(hydroxycarbamoyl)propyl]carbamoyl]-2-methyl-butyl]-N-methyl-pyrrolidine-2-carboxamide]: the IC50 is 0.242 µM in test [1], 19.2 µM in test [2] and 4.94 µM in test [3].

Regarding `CC(=O)N1CCC[C@H]1C(=O)N(C)[C@@H](CCC(N)=O)C(=O)N[C@@H](Cc1c[nH]c2ccccc12)C(=O)NO` [Example C20, (2S)-2-[[(2S)-1-acetylpyrrolidine-2-carbonyl]-methyl-amino]-N-[(1S)-2-(hydroxyamino)-1-(1H-indol-3-ylmethyl)-2-oxo-ethyl]pentanediamide, reference compound] (Ac-Pro-[NMeQ]-Trp-{NHOH}), the IC50 in test [1] was 53 µM; in test [2], above 2000 µM; in test [3], above 2000 µM.

The values are drawn from patent US10414797B2, “Gelatinase inhibitors and use thereof” (Iproteos S.L, priority 2015, dated 2019).
